The text below walks through data of ChEMBL document CHEMBL5528002, “Identification of selective 5-LOX and FLAP inhibitors as novel anti-inflammatory agents by ligand-based virtual screening” (Eur J Med Chem, 2024).

The target of test [1] is T1, Polyunsaturated fatty acid 5-lipoxygenase (Homo sapiens) (UniProt P09917).
T1 sequence (whole entry): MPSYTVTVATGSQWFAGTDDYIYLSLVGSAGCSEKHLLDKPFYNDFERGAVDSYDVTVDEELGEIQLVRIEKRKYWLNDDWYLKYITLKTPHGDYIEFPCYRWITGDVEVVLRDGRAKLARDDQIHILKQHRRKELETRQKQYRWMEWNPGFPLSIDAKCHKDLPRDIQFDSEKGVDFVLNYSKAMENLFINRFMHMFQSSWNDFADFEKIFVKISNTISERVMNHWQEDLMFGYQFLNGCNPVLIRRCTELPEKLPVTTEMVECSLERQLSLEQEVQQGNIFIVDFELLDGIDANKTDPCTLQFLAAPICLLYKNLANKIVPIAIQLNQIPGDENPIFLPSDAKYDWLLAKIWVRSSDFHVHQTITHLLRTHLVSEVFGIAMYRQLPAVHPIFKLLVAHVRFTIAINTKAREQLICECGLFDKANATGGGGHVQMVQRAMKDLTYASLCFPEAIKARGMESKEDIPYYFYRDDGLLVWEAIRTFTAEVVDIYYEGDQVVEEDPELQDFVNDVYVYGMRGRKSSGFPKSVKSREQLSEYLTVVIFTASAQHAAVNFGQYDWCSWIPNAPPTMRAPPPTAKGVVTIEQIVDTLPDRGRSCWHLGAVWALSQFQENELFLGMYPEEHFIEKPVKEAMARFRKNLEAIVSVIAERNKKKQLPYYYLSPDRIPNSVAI
Kind of test: Inhibition of human recombinant 5-LOX expressed in Escherichia coli BL21(DE3) assessed as enzyme remaining activity at 10 uM using arachidonic acid as substrate preincubated with compound for 15 mins followed by substrate and CaCl2 addition measured after 10 mins by RP-HPLC analysis relative to control. As to conditions: time 25.0 min.

The test system of test [2] is Macrophage cell line. In words: Effect on lipid mediator formation in human M1-like phenotype MDM cells by measuring 5-HEPE formation at 10 uM pre-incubated for 15 mins followed by SACM stimulation and measured after 90 mins by UPLC-MS/MS analysis relative to control. Type of test: functional. As to conditions: time 105 min, 1.75 h.
For test [3], the system named is Macrophage cell line. In words: Effect on lipid mediator formation in human M1-like phenotype MDM cells by measuring 5-HETE formation at 10 uM pre-incubated for 15 mins followed by SACM stimulation and measured after 90 mins by UPLC-MS/MS analysis relative to control. As to conditions: time 105 min, 1.75 h. The test is classed as functional.
Test [4] relates to Macrophage cell line. Kind of test: Effect on lipid mediator formation in human M1-like phenotype MDM cells by measuring t-LTB4 formation at 10 uM pre-incubated for 15 mins followed by SACM stimulation and measured after 90 mins by UPLC-MS/MS analysis relative to control. The test is classed as functional. As to conditions: time 105 min, 1.75 h.
Test [5] deals with Macrophage cell line. Kind of test: Effect on lipid mediator formation in human M1-like phenotype MDM cells by measuring 4-HDHA formation at 10 uM pre-incubated for 15 mins followed by SACM stimulation and measured after 90 mins by UPLC-MS/MS analysis relative to control. As to conditions: time 105 min, 1.75 h. The test is classed as functional.
The subject of test [6] is Macrophage cell line. Kind of test: Effect on lipid mediator formation in human M1-like phenotype MDM cells by measuring 5,15-diHETE formation at 10 uM pre-incubated for 15 mins followed by SACM stimulation and measured after 90 mins by UPLC-MS/MS analysis relative to control. The test is classed as functional. The note with it: time 105 min, 1.75 h.
Test [7] has as its system Macrophage cell line. Kind of test: Effect on lipid mediator formation in human M2-like phenotype MDM cells by measuring 5-HEPE formation at 10 uM pre-incubated for 15 mins followed by SACM stimulation and measured after 90 mins by UPLC-MS/MS analysis (reference value: 299 +/- 20 pg/ml). Type of test: functional. The note with it: time 105 min, 1.75 h.
Test [8] relates to Macrophage cell line. Kind of test: Effect on lipid mediator formation in human M2-like phenotype MDM cells by measuring 5-HETE formation at 10 uM pre-incubated for 15 mins followed by SACM stimulation and measured after 90 mins by UPLC-MS/MS analysis (reference value: 4812 +/- 561 pg/ml). The test is classed as functional. As to conditions: time 105 min, 1.75 h.
Test [9] concerns Macrophage cell line. Kind of test: Effect on lipid mediator formation in human M2-like phenotype MDM cells by measuring 14-HDHA formation at 10 uM pre-incubated for 15 mins followed by SACM stimulation and measured after 90 mins by UPLC-MS/MS analysis (reference value: 1517 +/- 298 pg/ml). The test is classed as functional. As to conditions: time 105 min, 1.75 h.
In test [10] the test system is Macrophage cell line. In words: Effect on lipid mediator formation in human M2-like phenotype MDM cells by measuring 4-HDHA formation at 10 uM pre-incubated for 15 mins followed by SACM stimulation and measured after 90 mins by UPLC-MS/MS analysis (reference value: 58 +/- 8 pg/ml). The note with it: time 105 min, 1.75 h. The test is classed as functional.
Test [11] relates to Macrophage cell line. Kind of test: Effect on lipid mediator formation in human M2-like phenotype MDM cells by measuring 5,15-diHETE formation at 10 uM pre-incubated for 15 mins followed by SACM stimulation and measured after 90 mins by UPLC-MS/MS analysis (reference value: 1231 +/- 356 pg/ml). The test is classed as functional. The note with it: time 105 min, 1.75 h.
For test [12], the system named is Macrophage cell line. In words: Effect on lipid mediator formation in human M2-like phenotype MDM cells by measuring PDX1 formation at 10 uM pre-incubated for 15 mins followed by SACM stimulation and measured after 90 mins by UPLC-MS/MS analysis (reference value: 13 +/- 3 pg/ml). Type of test: functional. As to conditions: time 105 min, 1.75 h.
The test system of test [13] is Macrophage cell line. Kind of test: Effect on lipid mediator formation in human M2-like phenotype MDM cells by measuring RvD2 formation at 10 uM pre-incubated for 15 mins followed by SACM stimulation and measured after 90 mins by UPLC-MS/MS analysis (reference value: 6 +/- 1 pg/ml). Type of test: functional. As to conditions: time 105 min, 1.75 h.
Test [14] relates to Macrophage cell line. In words: Effect on lipid mediator formation in human M2-like phenotype MDM cells by measuring 5-HEPE formation at 10 uM pre-incubated for 15 mins followed by SACM stimulation and measured after 90 mins by UPLC-MS/MS analysis relative to control. Type of test: functional. As to conditions: time 105 min, 1.75 h.
In test [15] the test system is Macrophage cell line. Kind of test: Effect on lipid mediator formation in human M2-like phenotype MDM cells by measuring PGF2alpha formation at 10 uM pre-incubated for 15 mins followed by SACM stimulation and measured after 90 mins by UPLC-MS/MS analysis relative to control. The test is classed as functional. The note with it: time 105 min, 1.75 h.
Test [16] concerns Macrophage cell line. Kind of test: Effect on lipid mediator formation in human M2-like phenotype MDM cells by measuring TXB2 formation at 10 uM pre-incubated for 15 mins followed by SACM stimulation and measured after 90 mins by UPLC-MS/MS analysis relative to control. Type of test: functional. The note with it: time 105 min, 1.75 h.
The subject of test [17] is Macrophage cell line. In words: Effect on lipid mediator formation in human M2-like phenotype MDM cells by measuring 7-HDHA formation at 10 uM pre-incubated for 15 mins followed by SACM stimulation and measured after 90 mins by UPLC-MS/MS analysis relative to control. The note with it: time 105 min, 1.75 h. The test is classed as functional.
Test [18] concerns Macrophage cell line. Kind of test: Effect on lipid mediator formation in human M2-like phenotype MDM cells by measuring 15-HEPE formation at 10 uM pre-incubated for 15 mins followed by SACM stimulation and measured after 90 mins by UPLC-MS/MS analysis relative to control. The test is classed as functional. As to conditions: time 105 min, 1.75 h.
Test [19] relates to Macrophage cell line. Kind of test: Effect on lipid mediator formation in human M2-like phenotype MDM cells by measuring 5,15-diHETE formation at 10 uM pre-incubated for 15 mins followed by SACM stimulation and measured after 90 mins by UPLC-MS/MS analysis relative to control. Type of test: functional. As to conditions: time 105 min, 1.75 h.
The nature of test [20]: Antioxidant activity assessed as DPPH radical scavenging activity at 10 uM incubated for 30 min by DPPH assay. The test is classed as functional.

The structures appear in SMILES notation. Active and inactive are the calls of the source. The calls are words filed in the database; no cut-off is given here.

As for `Oc1ccc(CCC2CCC(c3ccc(O)cc3)CO2)cc1` (stereo not given), the Activity in test [1] turned out to be 96.5%; in the test on Macrophage cell line [2] it was 18%; with Macrophage cell line [3], 13%; with Macrophage cell line [4], 8%; in the test with Macrophage cell line [5], 75%; with Macrophage cell line [6] it was 30%. For the same molecule, the Activity in the test on Macrophage cell line [7] was 102 pg/mL; in the test on Macrophage cell line [8] it was 1181 pg/mL; with Macrophage cell line [9], 2101 pg/mL; in the test on Macrophage cell line [10], 58 pg/mL; in the test with Macrophage cell line [11], 751 pg/mL; with Macrophage cell line [12] it was 15 pg/mL. The Activity is 5 pg/mL with Macrophage cell line [13]; 34% in the test on Macrophage cell line [14]; 80% in the test with Macrophage cell line [15]; 86% in the test on Macrophage cell line [16]; 116% in the test with Macrophage cell line [17]; 140% in the test with Macrophage cell line [18]. This molecule gave an Activity in the test with Macrophage cell line [19] of 61%. In addition, the outcome in test [20] was inactive.
Regarding `COc1ccc(C2=C/C(=C/c3ccc(O)cc3O)C(=O)O2)cc1`, the Activity was found to be 84.5% in test [1]; 11% in the test with Macrophage cell line [2]; 7% in the test with Macrophage cell line [3]; 8% in the test with Macrophage cell line [4]; 80% in the test on Macrophage cell line [5]; 13% with Macrophage cell line [6]. Besides, the Activity is 55 pg/mL with Macrophage cell line [7]; 450 pg/mL in the test with Macrophage cell line [8]; 2718 pg/mL with Macrophage cell line [9]; 49 pg/mL with Macrophage cell line [10]; 479 pg/mL with Macrophage cell line [11]; 18 pg/mL with Macrophage cell line [12]. Further, the Activity with Macrophage cell line [13] was 6 pg/mL; in the test on Macrophage cell line [14] it was 18%; in the test on Macrophage cell line [15] it was 125%; in the test on Macrophage cell line [16] it was 76%; with Macrophage cell line [17], 121%; in the test with Macrophage cell line [18], 157%. In addition, in the test with Macrophage cell line [19], the Activity stood at 39%. In addition, the outcome in test [20] was inactive.
